Measurements taken from patent US6638966B2 (University of Iowa Research Foundation, priority 2000, dated 2003).

Tests used:
[1] = Solubility of melatonin in 1-methyl-2-pyrrolidinone/propylene glycol/water solvent; assay type: physicochemical; settings: solvent: 1 volume 1-methyl-2-pyrrolidinone, 1 volume propylene glycol, 2 volumes water
Text: The volume ratios here expressed are preferred but generally can be within the range of 25% or less by volume of 1-methyl-2-pyrrolidinone.

male Sprague-Dawley rats = assay: Anesthetic effect of melatonin given through a jugular catheter to rats (Intralipid and cyclodextrin preparations); assay type: in vivo, rat; settings: for anesthetic effect (righting reflex) / anesthetic effect (righting reflex, eyelash reflex, hind paw pressure): 50 mg/ml
Method: All experiments were carried out in male Sprague-Dawley rats (300-350 g). Rats were maintained on a 12 hour light/12 hour dark cycle with free access to food and water. All surgical procedures were performed under sterile conditions (skin preparation, sterile filed drape, gloves, mask, etc.). All instruments and materials were ethylene oxide sterilized. Non-fasting adult male Sprague Dawley rats (˜300 gm) were anesthetized with halothane in oxygen and weighed. The hair over the ventral neck and over the back (between the scapulae) was removed with an electric razor. In the supine position the ventral neck was washed with povidone-iodine, followed by a 3-cm skin incision, just left of mid-line. All bleeding points were cauterized. Both the left jugular vein and left common carotid artery were isolated via blunt dissection. The left jugular vein was cannulated with a heparinized (20 U/ml) saline-filled silastic catheter (0.012-in ID, 0.025-in OD) advanced ˜3-cm into the right atrium. The jugular catheter was secured to the vein with 4-0 silk at the point of insertion, as well as at the rostral jugular ligature. After implantation of intravascular catheters, rats were housed in individual stainless steel cages. […] Crystalline Melatonin powder was obtained from Sigma (Sigma Chemical Co. St. Louis, Mo.).

rats [2] = assay: Cumulative i.v. doses: indices of anesthesia in rats (righting reflex, grip strength, eyelash reflex, paw withdrawal threshold); assay type: in vivo, rat; settings: for estimated ED95 (and 95% CI) for loss of righting reflex: cumulative i.v. injection of divided doses; for effect on righting reflex, grip strength and eyelash reflex: three cumulative i.v. doses about 1 min apart: 6.67 mg/kg thiopental, 3.3 mg/kg propofol, 70 mg/kg melatonin
Method: (§1) After the final cumulative dose, measurements of anesthesia end-points were made at fixed intervals for an additional 20 minutes. […] Measurements of anesthesia end-points were made in these rats at fixed intervals for 20 minutes. Righting reflex was scored on a four-point scale (1=immediate/brisk, both feet under the rat; 2=complete, but slower than normal; 3=slow, feet not placed under body; and 4=absent). The threshold pressure (mm Hg) at which the rat withdrew or vocalized after pinch of one hindpaw was measured. For paw pinch, a subminiature, very low profile load cell Omega part number LCKD-1KG, measurement range of 0-1 kg) (OMEGA Engineering, INC., Stamford, Conn.) was used to measure the amount of pressure applied to the rat's paw. The action of compressing the load cell between the faces of the sponge clamp assembly results in a change in impedance within the load cell, and this in turn, was then converted to mm Hg pressure by the monitor. The presence or absence of eyelash reflex was noted on a three-point scale (1=normal, 2=weak; and 3=absent). The strength of grip by the forepaws was determined on a four-point scale (0=absent, 1=weak, 2=moderate and 3=strong).
(§2) Thiopental was purchased from Abbott Laboratories (Northern Chicago, Ill.). Propofol was purchased from Zeneca Pharmaceuticals (Wilmington, Del.). […] Thiopental and propofol were dissolved in saline and Intralipid™ respectively. […] For the bolus injections, the volume of drug injected ranged from 0.6 to 0.75 ml.

rats [3] = assay: Single bolus i.v. injection: time course of indices of anesthesia in rats; assay type: in vivo, rat; settings: for time for which loss of righting reflex and grip strength was maximal: single i.v. bolus: 10 mg/kg propofol; for time for which loss of righting reflex and grip strength was maximal / effect on paw withdrawal threshold / effect on righting reflex and grip strength: 275 mg/kg melatonin; for effect on paw withdrawal threshold / effect on righting reflex and grip strength / time by which loss of righting reflex and grip strength resolved: single i.v. bolus: 20 mg/kg thiopental, 10 mg/kg propofol; for time by which loss of righting reflex and grip strength resolved: 275 mg/kg melatonin (near baseline values)
Method: as §1, §2

rats [4] = settings: rat, in vivo, iv
patients = settings: low-level doses sublingually, British Journal of Anesthesia 82(6):875-80(1999); cited from earlier work
[5] = Anesthetic effect compared with melatonin; settings: in vivo
[6] = Rat 1, 315 mg/kg, in 40% cyclodextrin
[7] = Rat 2, 374 mg/kg, in 40% cyclodextrin

Q: With `COc1ccc2[nH]cc(CCNC(C)=O)c2c1` [melatonin, N-acetyl-5-methoxytryptamine] as the molecule, how does the “concentration to which melatonin can be dissolved” value [1] read?
A: ≤ 300000 µg/mL

Q: And the “anesthetic effect (righting reflex)” value (male Sprague-Dawley rats; Rat 1, 250 mg/kg followed about 1 minute later by 65 mg/kg, Intralipid + Ringer's Lactate)?
A: very drugged but did not lose righting reflex

Q: What about the “anesthetic effect (righting reflex)” value (male Sprague-Dawley rats; Rat 1, 315 mg/kg, cyclodextrin 40% + Intralipid) of the same molecule?
A: moves slowly but no loss of righting reflex

Q: What about the “anesthetic effect (ptosis, eye blink, paw pinch)” value (male Sprague-Dawley rats; [6]) of the same molecule?
A: ptosis, loss of eye blink response and loss of paw pinch response to a pressure of 60 mmHg

Q: And the “time for which the righting reflex was lost” value (male Sprague-Dawley rats; [6])?
A: 27 min

Q: What about the “anesthetic effect (righting reflex, eyelash reflex, hind paw pressure)” value (male Sprague-Dawley rats; Rat 2, 250 mg/kg, Intralipid + Ringer's Lactate) of the same molecule?
A: loss of righting and eyelash reflexes and inability to pull his hind paw in response to pressure applied to it

Q: What about the “anesthetic effect (ptosis, eye blink)” value (male Sprague-Dawley rats; [7]) of the same molecule?
A: ptosis and loss of eye blink response

Q: And the “time for which the righting reflex was lost” value (male Sprague-Dawley rats; [7])?
A: 15 min

Q: And the paw pinch response (male Sprague-Dawley rats; Rat 2, 374 mg/kg, in 40% cyclodextrin, pressure of 60 mmHg)?
A: pulling his paw without vocalization

Q: What about the “anesthetic effect (righting reflex)” value (male Sprague-Dawley rats; Rat 2, 460 mg/kg, cyclodextrin 40% + Intralipid) of the same molecule?
A: loss of righting reflex

Q: What about the “anesthetic effect (righting reflex, eyelash reflex, hind paw pressure)” value (male Sprague-Dawley rats; Rat 3, 320 mg/kg, Intralipid + Ringer's Lactate) of the same molecule?
A: loss of righting and eyelash reflexes and inability to pull his hind paw in response to pressure applied to it

Q: And the “anesthetic effect (righting reflex, eyelash reflex, hind paw pressure)” value (male Sprague-Dawley rats; Rat 4, 370 mg/kg, Intralipid + Ringer's Lactate)?
A: loss of righting and eyelash reflexes and inability to pull his hind paw in response to pressure applied to it

Q: And the “effect on paw withdrawal threshold” value (rats [2]; cumulative i.v. doses of 70 mg/kg)?
A: dose-dependently increased paw withdrawal threshold

Q: What about the “estimated ED95 (and 95% CI) for loss of righting reflex” value (rats [2]) of the same molecule?
A: 312 (205-476) mg/kg

Q: And the “doses at which the increase in paw withdrawal threshold was apparent” value (rats [2]; i.v.)?
A: ≥ 140 mg/kg

Q: And the “effect on righting reflex, grip strength and eyelash reflex” value (rats [2])?
A: progressive loss of righting reflex and grip strength, but did not appreciably blunt the eyelash reflex

Q: And the “time for which the increase in paw withdrawal threshold persisted” value (rats [3]; single i.v. bolus 275 mg/kg)?
A: at least 20 min

Q: And the “time for which loss of righting reflex and grip strength was maximal” value (rats [3])?
A: 5 min

Q: And the “effect on paw withdrawal threshold” value (rats [3])?
A: increased paw withdrawal threshold as compared to vehicle

Q: And the “effect on righting reflex and grip strength” value (rats [3])?
A: immediate loss of righting reflex and grip strength

Q: And the “time by which loss of righting reflex and grip strength resolved” value (rats [3])?
A: ≤ 15 min

Q: What about the toxic side effects (rats [4]) of the same molecule?
A: without causing toxic side effects

Q: And the “anxiety and sedation before operation” value (patients)?
A: significant decrease in anxiety levels and an increase in levels of sedation before operation

Q: What does the source list for `CC(C)c1cccc(C(C)C)c1O` [propofol]?
A: estimated ED95 (and 95% CI) for loss of righting reflex (rats [2]): 14.9 (6.4-34.9) mg/kg; effect on righting reflex, grip strength and eyelash reflex (rats [2]): progressive loss of righting reflex, grip strength and eyelash reflex; time for which loss of righting reflex and grip strength was maximal (rats [3]): 5 min; effect on paw withdrawal threshold (rats [3]): significant increase in paw withdrawal threshold of similar duration; effect on righting reflex and grip strength (rats [3]): immediate loss of righting reflex and grip strength; time by which loss of righting reflex and grip strength resolved (rats [3]): ≤ 10 min

Q: With `CCCC(C)C1(CC)C(=O)NC(=S)NC1=O` (stereo not drawn) [thiopental] as the molecule, how does the “estimated ED95 (and 95% CI) for loss of righting reflex” value (rats [2]) read?
A: 23.8 (15.4-36.7) mg/kg

Q: And the “effect on righting reflex, grip strength and eyelash reflex” value (rats [2])?
A: progressive loss of righting reflex, grip strength and eyelash reflex

Q: And the “time at which loss of righting reflex and grip strength was maximal” value (rats [3]; single i.v. bolus 20 mg/kg)?
A: 1 min

Q: What about the “effect on paw withdrawal threshold” value (rats [3]) of the same molecule?
A: not accompanied by a change in paw withdrawal threshold

Q: What about the “effect on righting reflex and grip strength” value (rats [3]) of the same molecule?
A: immediate loss of righting reflex and grip strength

Q: And the “time by which loss of righting reflex and grip strength resolved” value (rats [3])?
A: ≤ 15 min

Q: For `COc1ccc2[nH]c(C(F)(F)F)c(CCNC(C)=O)c2c1` [2-trifluoromethylmelatonin], which “anesthetic effect relative to melatonin” value [5] is on record?
A: substantially more active in anesthetic effect than melatonin itself
